Test results from ChEMBL document CHEMBL1147321, “Terpenoids from the North Adriatic Sponge Spongia officinalis” (J Nat Prod, 1989).
Values after ≈ are worked out from the molar mass of the structure shown.

Test: Toxicity against Artemia salina by lethality assay
Format: organism-based
Details: in vivo, read-out: LD50 (the source's name)

Point of comparison: `C/C(=C\C(=O)C/C(C)=C/CCc1ccoc1)CCCc1ccoc1` [FUROSPONGIN 2], LC50 0.12 µg/mL (≈ 0.368 µM). Against it:
- C/C(=C\C(=O)/C=C(\C)CCCc1ccoc1)CCCc1ccoc1 — 13-fold higher, 1.6 µg/mL (≈ 4.9 µM)
- C/C(=C/C(=O)/C=C(\C)CCCc1ccoc1)CCCc1ccoc1 — within 1.5-fold, 0.09 µg/mL (≈ 0.276 µM)
- C/C(=C/C(=O)/C=C(/C)CCCc1ccoc1)CCCc1ccoc1 — 3.8-fold higher, 0.45 µg/mL (≈ 1.38 µM)
- CC(=O)O[C@H]1C[C@H]2[C@]3(C)CCCC(C)(C)[C@H]3CC[C@]2(C)[C@H]2CC=C3CO[C@H](O)[C@H]3[C@]12C — 1700-fold higher, 200 µg/mL (≈ 464 µM)
- CC(=O)O[C@H]1C[C@@H]2[C@@]3(C)CCCC(C)(C)[C@@H]3CC[C@@]2(C)[C@@H]2CCc3cocc3[C@@]12C — 1500-fold higher, 180 µg/mL (≈ 436 µM)
- CC(=O)O[C@@H]1OCC2=CC[C@H]3[C@]4(C)CC[C@H]5C(C)(C)CCC[C@]5(C)[C@H]4C[C@H](OC(C)=O)[C@]3(C)[C@H]21 [DEOXOSCALARIN ACETATE] — 1600-fold higher, 190 µg/mL
